Results reported in article PMC7034112, “Bioorganometallic derivatives of 4-hydrazino-benzenesulphonamide as carbonic anhydrase inhibitors: synthesis, characterisation and biological evaluation” (Journal of Enzyme Inhibition and Medicinal Chemistry, 2020).

Assays:
Assay in all cases: stopped-flow CO2 hydrase assay
Type in all cases: biochemical
Conditions in all cases: CO2 […], […] Hepes pH […] Na2SO4, […] h preincubation at room temperature
hCA IX = molecular target: T1, hCA IX (Homo sapiens, UniProt Q16790)
T1 construct: gene CA9; recombinant, obtained in-house
Excerpt: stopped-flow CO2 hydrase assay on hCA IX

hCA I = molecular target: T2, hCA I (Homo sapiens, UniProt P00915)
T2 construct: gene CA1; recombinant, obtained in-house
T2 sequence (P00915 2-261): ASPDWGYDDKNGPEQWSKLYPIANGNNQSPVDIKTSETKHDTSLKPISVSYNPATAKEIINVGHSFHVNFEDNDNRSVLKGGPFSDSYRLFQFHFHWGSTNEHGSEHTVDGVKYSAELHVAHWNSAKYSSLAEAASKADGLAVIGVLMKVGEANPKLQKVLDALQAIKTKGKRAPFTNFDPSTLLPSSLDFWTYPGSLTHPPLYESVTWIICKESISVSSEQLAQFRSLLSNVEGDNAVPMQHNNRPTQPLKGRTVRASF
Excerpt: stopped-flow CO2 hydrase assay on hCA I

hCA XII = molecular target: T3, hCA XII (Homo sapiens, UniProt O43570)
T3 construct: gene CA12; recombinant, obtained in-house
T3 sequence (O43570 25-354): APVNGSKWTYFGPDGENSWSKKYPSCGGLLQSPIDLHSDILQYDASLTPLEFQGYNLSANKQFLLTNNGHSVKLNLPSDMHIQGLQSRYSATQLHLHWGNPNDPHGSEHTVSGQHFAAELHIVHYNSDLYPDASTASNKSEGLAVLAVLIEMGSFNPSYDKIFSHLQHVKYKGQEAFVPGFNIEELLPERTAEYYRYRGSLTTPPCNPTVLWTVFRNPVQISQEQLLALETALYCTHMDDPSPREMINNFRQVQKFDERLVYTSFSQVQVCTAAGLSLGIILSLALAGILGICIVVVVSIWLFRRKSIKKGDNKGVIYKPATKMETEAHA
Excerpt: stopped-flow CO2 hydrase assay on hCA XII

hCA II = molecular target: T4, hCA II (Homo sapiens, UniProt P00918)
T4 construct: gene CA2; recombinant, obtained in-house
Excerpt: stopped-flow CO2 hydrase assay on hCA II

Row | Ki (hCA IX) [nM] | Ki (hCA I) [nM] | Ki (hCA XII) [nM] | Ki (hCA II) [nM] | Substance
1 | 41.9 | 3.6 | 1.9 | 9.3 | [{(η^5-C5H4)-C(CH3)=N-N(H)-C6H4-4-SO2NH2}]FeCp [3b]
2 | 49.9 | 13.2 | 4.9 | 1.7 | [{(η^5-C5H4)-CH=N–N(H)-C6H4-4-SO2NH2}]FeCp [3a]

The remaining lines, values behind:

Row | Substance | Ki (hCA IX) [nM] | Ki (hCA I) [nM] | Ki (hCA XII) [nM] | Ki (hCA II) [nM]
3 | [{(η^5-C5H4)-C(CH3)=N–N(H)-C6H4-4-SO2NH2}]Mn(CO)3 [2b] | 221 | 269 | 3.3 | 11.2
4 | [{(η^5-C5H4)-C(CH3)=N–N(H)-C6H4-4-SO2NH2}]re(CO)3 [1b] | 25 | 3.7 | 3.8 | 9.7
5 | [{(η^5-C5H4)-CH=N–N(H)-C6H4-4-SO2NH2}]Mn(CO)3 [2a] | 2.1 | 5.9 | 3.1 | 8.2
6 | [{(η^5-C5H4)-CH=N–N(H)-C6H4-4-SO2NH2}]re(CO)3 [1a] | 580 | 7.5 | 24.4 | 22.4
